The source made the active and inactive calls. No cut-off for these calls is given here.
How the values were obtained:
[1] = system: Hepatocyte; test: Inhibition of gluconeogenesis in Sprague-Dawley rat hepatocytes at 10 uM incubated for 1.5 hrs followed by sodium pyruvate and sodium lactate addition and measured after 4 hrs by colorimetric analysis relative to control; format: functional; details: time 5.5 hrs
[2] = system: Hepatocyte; test: Inhibition of gluconeogenesis in Sprague-Dawley rat hepatocytes at 1 uM incubated for 1.5 hrs followed by sodium pyruvate and sodium lactate addition and measured after 4 hrs by colorimetric analysis relative to control; format: functional; details: time 5.5 hrs
[3] = system: Mus musculus; test: Inhibition of gluconeogenesis in CD-1 mouse assessed as decrease in blood glucose level at 50 mg/kg administered via gavage at 1 hr prior to pyruvate sodium challenge and measured for 2 hrs by pyruvate tolerance test; format: functional, organism-based; details: time 3.0 hrs
[4] = system: Hepatocyte; test: Inhibition of gluconeogenesis in Sprague-Dawley rat hepatocytes at 0.3 uM incubated for 1.5 hrs followed by sodium pyruvate and sodium lactate addition and measured after 4 hrs by colorimetric analysis relative to control; format: functional; details: time 5.5 hrs
[5] = system: Hepatocyte; test: Inhibition of gluconeogenesis in Sprague-Dawley rat hepatocytes at 3 uM incubated for 1.5 hrs followed by sodium pyruvate and sodium lactate addition and measured after 4 hrs by colorimetric analysis relative to control; format: functional; details: time 5.5 hrs

| SMILES | fold change (FC) [1] | also measured |
| --- | --- | --- |
| C=CCc1ccc(OCc2ccc(C(=O)Nc3cccc(C)c3)o2)c(OC)c1 | 0.83 |  |
| CCCOc1cc(CCC)ccc1OCc1ccc(C(=O)O)o1 | 0.72 |  |
| CCCc1ccc(OCc2ccc(C(=O)O)o2)c(NC(C)=O)c1 | 0.95 |  |
| CCCc1ccc(OCc2ccc(C(=O)O)o2)c(OCC)c1 | 0.77 |  |
| C/C=C/c1ccc(OCc2ccc(C(=O)O)o2)c(OC)c1 | 0.93 |  |
| CCCc1ccc(OCc2ccc(C(=O)O)o2)c(OCC2CC2)c1 | 1.16 |  |
| CCCc1ccc(OCc2ccc(C(=O)O)o2)c(NC)c1 | 0.41 | fold change (FC) [2]: 0.81; inhibition [3]: Active; fold change (FC) [4]: 1.02; fold change (FC) [5]: 0.56 |
| COc1cc(CC(=O)N(C)C)ccc1OCc1ccc(C(=O)O)o1 | 1.15 |  |
| CNC(=O)Cc1ccc(OCc2ccc(C(=O)O)o2)c(OC)c1 | 1.08 |  |
| C=CCc1ccc(OCc2ccc(C(=O)N3CCOCC3)o2)c(OC)c1 | 0.97 |  |
| C=CCc1ccc(OCc2cccc(C(=O)O)c2)c(OC)c1 | 1.06 |  |
| CCCc1ccc(OCc2ccc(C(=O)O)o2)c(OCCn2cccc2)c1 | 1.28 |  |
| C=CCc1ccc(OCc2ccc(C(=O)N(C)C)o2)c(OC)c1 | 0.87 |  |
| C=CCc1ccc(OCc2cccc(C(=O)O)n2)c(OC)c1 | 1.11 |  |
| CNC(=O)CCc1ccc(OCc2ccc(C(=O)O)o2)c(OC)c1 | 0.98 |  |
| C=CCc1ccc(OC)c(OCc2ccc(C(=O)O)o2)c1 | 1 |  |
| CCCc1ccc(OCc2ccc(C(=O)O)o2)c(OCCOC)c1 | 0.72 |  |
| C=CCc1ccc(OCc2ccc(C(=O)N3CCN(C)CC3)o2)c(OC)c1 | 0.98 |  |
